From patent US8334403B1, “C-lysine conjugates as pH-controlled, light-activated reagents for double stranded DNA cleavage and associated methods” (Florida State University Research Foundation, Inc., priority 2005, dated 2012)

How the values were obtained:
[1] = tested on: three human clear cell renal cell carcinoma (RCC) cell lines (UMRC3, UMRC6, 786-O); assay: RCC cell proliferation assay, three cell lines together; type: cell-based; conditions: 10 μM
Method: FIG. 23 provides the results of cell proliferation assays using three different RCC cell lines: (a) UMRC3, (b) UMRC6 and (c) 786-O, and compounds I-5; RCC cells were resuspended in media and treated with UV radiation (350 nm) for 10 minutes with and without indicated compounds; control cells were exposed to the indicated compound 1-5 at final concentration of 10 μM; cell numbers determined after 72 hours as described in the SI Section;
The ability of compounds 1-5 to inhibit cell proliferation in three human clear cell renal cell carcinoma (RCC) cell lines was tested in the dark and under photoactivation (FIG. 23). No difference was detected in the control experiments between cells not exposed to UV versus those that were exposed to UV at 350 nm for 10 minutes in any of the three RCC cell lines tested (FIG. 23 A, B & C; first two columns).

pBR322 plasmid DNA = assay: Plasmid relaxation assay: DNA photocleavage of supercoiled plasmid under UV irradiation; type: biochemical; conditions: pH 6, 15 μM, 10 min of UV irradiation
Method: General information. ^1H, ^13C and ^19F NMR were collected on a Varian Gemini 300 MHz NMR spectrometer and a Bruker 300 MHz NMR spectrometer. Mass spectrometry data was collected on a Jeol JMS-600H. UV spectra were recorded on a Shimadzu UV-2100. Fluorescence spectra were obtained with SPEX FluoMax spectrofluorimeter using right-angle geometry. pH was adjusted with AB 15 plus pH meter (Accument) after standardization at 25° C. All buffers were prepared and pH-adjusted at room temperature (25° C.). Plasmid DNA Photocleavage. pBR322 plasmid DNA (4,361 b/p; from BioLabs Inc., 1 μg/μL solution in 10 mM Tris-HCl (pH 8.0), and 1 mM EDTA buffer) was diluted to a concentration of 0.01 μg/μL. The solution containing cleavage agent, DNA (30 μM/bp) in 20 mM sodium phosphate buffer was incubated for 1 hour at 30° C. Samples were placed on ice at a distance of 20 cm from 200 W Hg—Xe lamp (Spectra-Physics, Laser & Photonics Oriel Instruments with long pass filter with 324 nm cut-off wavelength). Electrophoretic Analysis. The gel electrophoresis was carried out in 1×TBE buffer at 80 V using Miligel FisherBiotech Horizontal Electrophoresis System. All gels were run on 1% agarose slab gels. Before loading, the DNA samples were mixed with 0.33 volume of tracking dye containing bromophenol blue (0.25%) and glycerol (30%) in water. After staining in ethidium bromide solution (2 μg/ml) for 1 hour, the gel was washed with water and pictures were taken with Polaroid 3000ISO type 667 film. The relative quantities of the supercoiled, nicked, and linear DNA were calculated by integrating the “area” of each spot by the image analyzer software Total/Lab (Nonlinear Dynamics Ltd., UK). The amount of supercoiled DNA was multiplied by factor of 1.4 to account for reduced ethidium bromide intercalation into supercoiled DNA. pH titration by ^1H-NMR. pH* of compound 8 (3 mM) solution in D2O containing 0.05 wt % 3-(trimethylsilyl)propionic-2,2,3,3-d4 acid, sodium salt (TSP-d4) was adjusted with 10 wt % DCI and NaOD in D2O at 25° C. under argon purged condition. Spectrometric determinations of pKa. pH of 10 μM of compound solution in H2O was adjusted with 10, 100 mM HCl (aq) and NaOH (aq) solution under argon purged condition. Excitation wavelength was 330 nm and polymethacrylate fluorimeter cuvettes were used. Absorbance and fluorescence titration with DNA. The concentrations of calf thymus DNA stock solution was determined spectophotometrically using the following molar absorptovity values: 1.32×10^4 M^−1 cm^−1 (per base pair) at 260 nm. All experiments were done in 20 mM sodium phosphate buffer at 25° C. and polymethacrylate fluorimeter cuvettes were used. The same amount of DNA was added to both sample and reference cuvettes during UV/Vis titration. Determination of excited state lifetimes. The concentration of compound solution was 10 μM in 20 mM sodium phosphate buffer. The photoluminescence lifetime measurements were conducted by exciting the samples with the output of a Nd:VO—4 (Spectra-Physics Vanguard, 2 W, 532 nm, 76 MHz, 10 ps) pumped R6G dye laser (Coherent 702-1). The output of the dye laser (600 nm, Rhodamine 6G) was cavity dumped at 1.9 MHz and frequency doubled using a BBO crystal to excite the fluorophore (the excitation wavelength used was 290 nm). Samples were excited with <1 mW power and the emission was collected at right angles onto a Chromex S3 500 is 0.5 m imaging monochromator with a 50 g/mm grating and 0.5 nm resolution. Output of the monochromator is focused into a Hamamatsu C5680 streak camera operating at a 20 ns window for the fluorophore. Intensity analysis was carried out by integrating the spectral profile in time on the streak camera. Lifetime analysis over 6-7 lifetimes of the fluorophore was conducted by binning the photoluminescence intensity collected on the streak camera over a 20 nm spectral window at the centroid value of the emission of the fluorophore. Ethidium bromide displacement. […]

[2] = Fluorometric (emission) determination of pKa; type: physicochemical; conditions: emission; α-amino group (4, 6), ε-amino group (7)
Method: (§1) General information. ^1H, ^13C and ^19F NMR were collected on a Varian Gemini 300 MHz NMR spectrometer and a Bruker 300 MHz NMR spectrometer. Mass spectrometry data was collected on a Jeol JMS-600H. UV spectra were recorded on a Shimadzu UV-2100. Fluorescence spectra were obtained with SPEX FluoMax spectrofluorimeter using right-angle geometry. pH was adjusted with AB 15 plus pH meter (Accument) after standardization at 25° C. All buffers were prepared and pH-adjusted at room temperature (25° C.). Plasmid DNA Photocleavage. pBR322 plasmid DNA (4,361 b/p; from BioLabs Inc., 1 μg/μL solution in 10 mM Tris-HCl (pH 8.0), and 1 mM EDTA buffer) was diluted to a concentration of 0.01 μg/μL. The solution containing cleavage agent, DNA (30 μM/bp) in 20 mM sodium phosphate buffer was incubated for 1 hour at 30° C. Samples were placed on ice at a distance of 20 cm from 200 W Hg—Xe lamp (Spectra-Physics, Laser & Photonics Oriel Instruments with long pass filter with 324 nm cut-off wavelength). Electrophoretic Analysis. The gel electrophoresis was carried out in 1×TBE buffer at 80 V using Miligel FisherBiotech Horizontal Electrophoresis System. All gels were run on 1% agarose slab gels. Before loading, the DNA samples were mixed with 0.33 volume of tracking dye containing bromophenol blue (0.25%) and glycerol (30%) in water. After staining in ethidium bromide solution (2 μg/ml) for 1 hour, the gel was washed with water and pictures were taken with Polaroid 3000ISO type 667 film. The relative quantities of the supercoiled, nicked, and linear DNA were calculated by integrating the “area” of each spot by the image analyzer software Total/Lab (Nonlinear Dynamics Ltd., UK). The amount of supercoiled DNA was multiplied by factor of 1.4 to account for reduced ethidium bromide intercalation into supercoiled DNA. pH titration by ^1H-NMR. pH* of compound 8 (3 mM) solution in D2O containing 0.05 wt % 3-(trimethylsilyl)propionic-2,2,3,3-d4 acid, sodium salt (TSP-d4) was adjusted with 10 wt % DCI and NaOD in D2O at 25° C. under argon purged condition. Spectrometric determinations of pKa. pH of 10 μM of compound solution in H2O was adjusted with 10, 100 mM HCl (aq) and NaOH (aq) solution under argon purged condition. Excitation wavelength was 330 nm and polymethacrylate fluorimeter cuvettes were used. Absorbance and fluorescence titration with DNA. The concentrations of calf thymus DNA stock solution was determined spectophotometrically using the following molar absorptovity values: 1.32×10^4 M^−1 cm^−1 (per base pair) at 260 nm. All experiments were done in 20 mM sodium phosphate buffer at 25° C. and polymethacrylate fluorimeter cuvettes were used. The same amount of DNA was added to both sample and reference cuvettes during UV/Vis titration. Determination of excited state lifetimes. The concentration of compound solution was 10 μM in 20 mM sodium phosphate buffer. The photoluminescence lifetime measurements were conducted by exciting the samples with the output of a Nd:VO—4 (Spectra-Physics Vanguard, 2 W, 532 nm, 76 MHz, 10 ps) pumped R6G dye laser (Coherent 702-1). The output of the dye laser (600 nm, Rhodamine 6G) was cavity dumped at 1.9 MHz and frequency doubled using a BBO crystal to excite the fluorophore (the excitation wavelength used was 290 nm). Samples were excited with <1 mW power and the emission was collected at right angles onto a Chromex S3 500 is 0.5 m imaging monochromator with a 50 g/mm grating and 0.5 nm resolution. […]

[3] = UV-absorption titration determination of pKa; type: physicochemical; conditions: absorption; α-amino group (4, 6), ε-amino group (7)
Method: as §1

SMILES | cytotoxicity in the dark [1] | ds-cleavage (pBR322 plasmid DNA) | pKa1 [2] | pKa1 [3]
Cl.Cl.NCCCC[C@H](N)C(=O)Nc1ccc(C#Cc2ccccc2)cc1 [Compound 5, (S)-2,6-Diaminohexanoic acid [4-(phenylethynyl)-phenyl]-amide dihydrochloride] | considerably less cytotoxic in the dark |  |  | 
C[C@H](N)C(=O)Nc1ccc(C#Cc2c(F)c(F)nc(F)c2F)cc1.Cl [Compound 6, (S)-2-Amino-propanoic acid [4-(2,3,5,6-tetrafluoro-pyridin-4-ylethynyl)-phenyl]-amide hydrochloride] |  | do not produce any ds-cleavage | 7.6 | 7.4
